In article PMC5465257, “Evaluation of JNJ-54717793 a Novel Brain Penetrant Selective Orexin 1 Receptor Antagonist in Two Rat Models of Panic Attack Provocation” (Frontiers in Pharmacology, 2017):
Read-outs that look alike come from different tables or passages of the source.

Tests used:
[1] = biological target: T1, OX1R in rat brain (tenia tecta) (Rattus norvegicus, UniProt P56718); assay: Ex vivo OX1R receptor occupancy autoradiography in rat brain (tenia tecta), with plasma bioanalysis; conditions: 10 mg/kg subcutaneous; for receptor occupancy at 10 mg/kg: sc
T1 construct: Twenty micron thick tissue sections at the level of the tenia tecta were prepared for autoradiography; from tissue; host or cells: brain sections (tenia tecta) of male Sprague-Dawley rats
T1 sequence (P56718 1-416): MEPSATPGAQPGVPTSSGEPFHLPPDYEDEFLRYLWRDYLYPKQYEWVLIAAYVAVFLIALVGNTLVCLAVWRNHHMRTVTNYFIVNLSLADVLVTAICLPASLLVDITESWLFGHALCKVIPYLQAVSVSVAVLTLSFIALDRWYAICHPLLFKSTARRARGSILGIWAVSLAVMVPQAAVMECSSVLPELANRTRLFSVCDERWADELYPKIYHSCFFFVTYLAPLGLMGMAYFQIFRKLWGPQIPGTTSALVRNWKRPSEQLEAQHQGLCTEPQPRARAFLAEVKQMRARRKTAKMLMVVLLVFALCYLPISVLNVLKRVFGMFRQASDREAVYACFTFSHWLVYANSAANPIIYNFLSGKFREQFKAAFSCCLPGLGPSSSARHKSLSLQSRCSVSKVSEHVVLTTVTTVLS

[2] = biological target: T1, OX1R in rat brain (tenia tecta); assay: as above
Method: (§1) Experiments were performed as previously described ([Dugovic et al., 2009]) in male Sprague-Dawley rats (300–400 g, Charles River Laboratories, San Diego, CA, United States). The animals were euthanized using carbon dioxide and decapitated at different time points after drug administration (n = 3 per time point or dose regimen). Brains were rapidly frozen on powdered dry ice and stored at -80°C before sectioning. Plasma samples were also collected for bioanalysis (LC–MS/MS). Twenty micron thick tissue sections at the level of the tenia tecta were prepared for autoradiography. OX1R radioligand binding autoradiography was determined at room temperature with 5 nM [^3H]SB-674042. Sections were incubated for 10 min to minimize dissociation. Non-specific binding was determined in the presence of 10 μM SB-674042. Ex vivo receptor labeling was expressed as the percentage of receptor labeling in corresponding brain areas (i.e., tenia tecta) of vehicle-treated animals. The percentage of receptor occupancy was plotted against time or dosage using GraphPad Prism (GraphPad Software, San Diego, CA, United States). Percentage of receptor occupancy was also plotted against drug plasma or brain concentration. Pharmacokinetic parameters were analyzed using a non-compartmental model using the software package WinNonlin Version 4.0.1 (Pharsight, Palo Alto, CA, United States).
(§2) In vivo occupancy of the OX1R was assessed by ex vivo receptor binding autoradiography of [^3H]SB-674042 in rat brain tissue sections at the level of the tenia tecta. Time-dependency and dose-dependency were assessed after oral dosing (Figure 2).

[3] = as above; conditions: male, Sprague-Dawley, plasma
Method: as §1, §2

rat OX1R = biological target: T2, rat OX1R (Rattus norvegicus, UniProt P56718); assay: Rat OX1R competitive radioligand binding ([3H]SB-674042); parameters: expressed in transfected cells; host or cells: clonal HEK-293 cells
T2 sequence (P56718 1-416): T1 sequence (P56718 1-416)
Method: Human or rat OX1R binding was measured in competitive radioligand binding assays using [^3H]SB-674042 (1-(5-(2-fluoro-phenyl)-2-methyl-thiazol-4-yl)-1-((S)-2-(5-phenyl-(1,3,4)oxadiazol-2-ylmethyl)-pyrrolidin-l-yl)-methanone) as a tracer (4 nM, specific activity 35 Ci/mmol) as previously described ([Langmead et al., 2004]). Cell membranes were prepared from clonal CHO K1 cells transfected with the human OX1R or clonal HEK-293 cells transfected with the rat OX1R. Dilutions of test compounds were made in Dulbecco’s PBS from 10 mM stocks dissolved in dimethyl sulfoxide. After a 60 min incubation at room temperature, binding reactions were filtered. The membranes were counted in a scintillation counter. Non-specific binding was determined in the presence of 10 μM almorexant. Affinities of compounds for the human OX2R were measured by competitive radioligand binding using tritiated N-ethyl-2-[(6-methoxy-pyridin-3-yl)-(toluene-2-sulfonyl)-amino]-N-pyridin-3-ylmethyl-acetamide (EMPA) (2 nM, specific activity 27 Ci/mmol) ([Malherbe et al., 2009]). Cell membranes were prepared from a stable pool of HEK-293 cells transfected with the human OX2R. Non-specific binding was determined with 10 μM almorexant.
The Ki of the test compounds was calculated based on non-linear regression (one site competition) using Graphpad Prism. […]

human OX1R = biological target: T3, human OX1R (Homo sapiens, UniProt O43613); assay: Calcium mobilization functional assay, CHO-K1 cells, OX-A EC80
T3 sequence (O43613 1-425): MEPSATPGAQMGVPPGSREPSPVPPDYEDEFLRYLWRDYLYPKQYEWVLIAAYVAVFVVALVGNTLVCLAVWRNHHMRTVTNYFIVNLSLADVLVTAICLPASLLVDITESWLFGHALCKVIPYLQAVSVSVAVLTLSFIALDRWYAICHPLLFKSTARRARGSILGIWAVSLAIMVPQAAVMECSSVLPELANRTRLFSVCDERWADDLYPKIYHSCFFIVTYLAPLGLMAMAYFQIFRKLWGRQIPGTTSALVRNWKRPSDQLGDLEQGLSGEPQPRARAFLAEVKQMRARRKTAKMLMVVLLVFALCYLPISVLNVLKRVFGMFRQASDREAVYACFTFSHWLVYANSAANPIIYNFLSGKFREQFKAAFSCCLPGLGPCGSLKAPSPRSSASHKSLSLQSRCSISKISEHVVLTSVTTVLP
Method: Stably transfected CHO-K1 cells for the human OX1R or HEK-293 cells for the rat OX1R were used for the in vitro functional assays. […] Since the intracellular calcium response is transient and not consistent with equilibrium assumptions, the assays were performed by giving a standard, EC80 dose of the OX agonist and calculating a pKB from inhibition of the agonist response by a dose range of the antagonists. The cells were plated in black 96 well tissue culture plates with clear bottoms at 50,000 cells/well and grown overnight at 37°C in 5% carbon dioxide (CO2). […] The cell plate was then transferred to the Molecular Devices Fluorometric Imaging Plate Reader (FLIPR) Tetra instrument, which adds the OX agonist and monitors changes in fluorescence which reflect intracellular calcium levels.
Results were calculated using GraphPad Prism (San Diego, CA, United States) software. Raw data from the FLIPR Tetra was exported as the difference between maximum and minimum fluorescence observed for each well. A non-linear regression was used to determine the agonist EC50 and antagonist IC50 for each plate, then the antagonist KB was calculated according to Cheng and Prusoff ([Cheng and Prusoff, 1973]).

O=C(c1cccc(F)c1-c1ncccn1)N1[C@@H]2CC[C@H]1[C@H](Nc1cnc(C(F)(F)F)cn1)C2 [JNJ-54717793, (1S,2R,4R)-7-([(3-fluoro-2-pyrimidin-2-ylphenyl)carbonyl]-N-[5-(trifluoromethyl)pyrazin-2-yl]-7-azabicyclo[2.2.1]heptan-2-amine)]
plasma concentration for maximal receptor occupancy [1]: 2211 ± 339 ng/mL | receptor occupancy at 10 mg/kg ([1]; 2 h time point, read-out: OX1R occupancy): 65% | receptor occupancy at 10 mg/kg ([1]; observed at 30 min, read-out: maximal OX1R occupancy): 83 ± 7% | level of OX1R occupancy ([2]; 30 mg/kg oral, after the first 6 h): negligible | receptor occupancy at 30 mg/kg ([2]; 30 mg/kg oral, first 6 h, read-out: level of OX1R occupancy): > 58% | receptor occupancy at 30 mg/kg ([2]; 30 mg/kg oral, observed at 15 min, read-out: maximal OX1R occupancy): 87 ± 3% | ED50 ([2]; oral, 60 min after treatment): 1.3 mg/kg | receptor occupancy at 3 mg/kg ([2]; oral, reached at 3 mg/kg, 60 min after treatment, read-out: plateau for maximal OX1R occupancy): 80 to 90% | concentration at 60 min ([3]; 1.3 mg/kg, oral, 95% confidence interval 26 to 277 ng/ml, read-out: plasma exposure corresponding to ED50): 84 ng/mL | concentration at 60 min ([3]; 3 mg/kg oral, read-out: plasma concentration at plateau of occupancy): ~311 ng/mL | concentration at 15 min ([3]; 30 mg/kg oral, 15 min, read-out: plasma concentration at maximal OX1R occupancy): 3730 ± 440 ng/mL | Ki (rat OX1R): 14.5 nM | Kb (human OX1R): 16.6 nM
